From US9139596B2, “Cyclic prodrugs of duocarmycin analogs” (The Scripps Research Institute, priority 2012, dated 2015)
Read-outs that look alike come from different tables or passages of the source.

Experiments:
[1] = Stability in human plasma
Experimental: Reagents and solvents were purchased reagent-grade and used without further purification. Pooled human plasma, with sodium citrate as an anticoagulant, was purchased from Innovative Research and stored at −20° C. […] All reactions were performed in oven-dried glassware under an Ar atmosphere. Evaporation and concentration in vacuo was performed at 20° C. […] Chiral phase HPLC was performed using a Shimadzu HPLC on a semi-preparative Diacel ChiralCel OD column (0.46 cm×25 cm) with a flow rate of 7 mL/min and with UV detection at λ=254 nm. Optical rotations were determined on a Rudolf Research Analytical Autopol III Automatic Polarimeter (λ=589 nm, 25° C.).

[2] = Stability in pH 7.0 phosphate buffer; conditions: for half-life: buffer
w794 DNA = assay: DNA alkylation in cell-free systems; assay type: biochemical
Excerpt: Lane 1, control DNA; lanes 2-5, Sanger G, C, A, and T sequencing reactions; lanes 6-8, (+)-1 (1×10^−4 to 1×10^−6); lanes 9-10, (−)−1 (1×10^−3 to 1×10^−4); lanes 11-12, (+)-6 (1×10^−1 to 1×10^−2).

[3] = Stability in mouse plasma (Table 4)
[4] = test system: L1210 murine leukemia cells implanted ip; assay: In vivo antitumor activity (L1210, ip); conditions: for Surviving Mice: live animals after 250 days
Experimental: Therefore, the in vivo antitumor activity of (+)-6 was assessed alongside seco-CBI-indole2 (4) in an antitumor model consisting of L1210 murine leukemia cells implanted ip into […] which has been used historically as an initial antitumor model for comparisons in this class.^11,12,14,15 A dose range of 300 to 9000 μg/kg for prodrug (+)-6 (scaled to its in vitro cytotoxic activity IC50) and 60 to 500 μg/kg for seco-CBI-indole2 (4) and a dosing schedule (administered three times ip on days 1, 5, and 9) for both compounds was employed.
B6D2F1 mice were injected intraperitoneal (i.p.) with syngeneic L1210 cells (1×10^6) on day 0. Ten mice were randomly assigned to control vehicle or treatment groups for compounds (+)-4 and (+)-6 at doses of 60, 100, 250, and 500 μg/kg/inj for (+)-4 or 300, 1000, 3000, and 9000 μg/kg/inj for (+)-6. Compounds (+)-4 and (+)-6 were formulated in 100% DMSO, and injected i.p. on study days 1, 5, and 9. Following injection of tumor cells, animals were monitored daily and weighed two times per week. Percent survival (T/C) for treated and control groups were determined by dividing the total survival days for each treatment group by the total survival days for the control group and multiplying ×100. All animal studies were carried out in the animal facilities of The University of Kansas Medical Center with strict adherence to the guidelines of the IACUC Animal Welfare Committee of KUMC (IACUC approval #2009-1837).

[5] = test system: L1210 murine leukemia cell line; assay: In vitro cytotoxic activity (cell growth inhibition), L1210; assay type: cell-based; conditions: for IC50: Mus musculus
Experimental: In Vitro Cytotoxic Activity. Both (+)- and ent-(−)-6 and their N-Boc precursors 16 were tested for cell growth inhibition in a cytotoxic assay with the L1210 murine leukemia cell line.

[6] = 300 μg/kg i.p. on days 1, 5, and 9
[7] = 1000 μg/kg i.p. on days 1, 5, and 9
[8] = 3000 μg/kg i.p. on days 1, 5, and 9
[9] = 9000 μg/kg i.p. on days 1, 5, and 9

## O=C1Nc2cccc3c4c(cc(c23)O1)N(C(=O)c1cc2cc(NC(=O)c3cc5ccccc5[nH]3)ccc2[nH]1)C[C@H]4CCl [Compound 6, N-(2-(10-(Chloromethyl)-5-oxo-5,8,9,10-tetrahydro-4H-pyrrolo[3′,2′:5,6]naphtho[1,8-de][1,3]oxazine-8-carbonyl)-1H-indol-5-yl)-1H-indole-2-carboxamide]
[1]; human plasma, 48 h
  free drug release: 5%
[1]; human, plasma
  half-life: > 48 h
[2]; pH 7, Stability t1/2, pH 7.0 phosphate buffer, Table 4
  half-life: > 168 h
[2]; pH 7, t1/2, pH 7.0 phosphate buffer
  half-life: > 672 h
[2]; pH 7.0 phosphate buffer
  cleavage of the prodrug: no cleavage observed
w794 DNA
  DNA alkylation: incapable of alkylating DNA
[3]
  half-life: 12 h
[4]; [6]
  MSP (Mean Survival Period): 24.7 days
  T/C (Treated/Control MSP x 100): 140
  Surviving Mice: 0/10
[4]; [7]
  MSP (Mean Survival Period): >48.5 days
  T/C (Treated/Control MSP x 100): >275
  Surviving Mice: 1/10
[4]; [8]
  MSP (Mean Survival Period): >55.3 days
  T/C (Treated/Control MSP x 100): >310
  Surviving Mice: 1/10
[4]; [9]
  MSP (Mean Survival Period): >172.6 days
  T/C (Treated/Control MSP x 100): >980
  Surviving Mice: 5/10
[4]; 9000 μg/kg i.p. on days 1, 5, and 9, listed as (+)-6
  T/C (Treated/Control MSP x 100): > 980
[4]; 300 to 9000 μg/kg (30-fold range) i.p. on days 1, 5, and 9
  antitumor activity over the dose range examined: productive antitumor activity over the entire and much larger dose range examined
[4]; ip administration, compared with the free drug
  tolerance at the injection sites: tolerated at the injection sites of the animals much better than the free drug
[5]; L1210
  fold less potent than the parent drug 20: 30-70 fold
  fold more potent than its unnatural enantiomer: 6 fold
  potency of natural (S)- versus unnatural (R)-enantiomer: about one order of magnitude more potent
  times more potent than its N-Boc precursor 16: 100 to 1000 times
[5]; L1210, natural enantiomer
  fold less potent than the free drug seco-CBI-indole2 4: approximately 200 fold
[5]; L1210, natural (S)-enantiomer, Table 4, read-out: In vitro IC50 L1210 natural
  IC50: 6.6 nM
[5]; L1210, natural enantiomer, Table 2, read-out: IC50 L1210 natural
  IC50: 6.6 nM
[5]; L1210, unnatural (R)-enantiomer, Table 4, read-out: In vitro IC50 L1210 unnatural
  IC50: 40 nM
[5]; L1210, unnatural enantiomer, Table 2, read-out: IC50 L1210 unnatural
  IC50: 40 nM
[5]; L1210, stated range, read-out: in vitro cellular potency (IC50)
  IC50: 1 to 10 nM
